Assay results taken from US4839379A, “Substituted azabicycloalkanes, the use thereof, pharmaceutical compositions containing them” (Ciba-Geigy Corporation, priority 1982, dated 1989).

Test system: aromatase
Experiment: aromatase assay according to Graves and Salhanick using human placental microsomes in vitro
Format: biochemical
Description: The novel compounds of formula I and their pharmaceutically acceptable salts have, for example, valuable pharmacological properties as aromatase inhibitors. […] In this experimental method, the formation of water with tritium isotopes and 17β-oestradiol obtained from [1β,2β--^3 H]-testosterone is measured as a result of the action of a compound of the formula I on the formation of the hydrogenated form of the aromatase coenzyme, nicotinamide adenine dinucleotide phosphate (NADPH).

Structure (SMILES): Nc1ccc(C23CC2C(=O)N(CC2CCCCC2)C3=O)cc1 (centres unmarked) [Example 12, 1-(4-Aminophenyl)-3-cyclohexylmethyl-3-azabicyclo[3.1.0]hexane-2,4-dione]
- enzyme activity (NADPH content); content of water with radioactive tritium isotopes formed from [1β,2β-3H]-testosterone (compared with measurements without addition of compound): substantially reduces the enzyme activity
- diminution of enzyme activity in comparison measurements with known aromatase inhibitors (comparison with aminoglutethimide): substantially greater than with the addition of other known aromatase inhibitors, e.g. aminoglutethimide
